# From ChEMBL document CHEMBL1131853 (Bioorg Med Chem Lett, 1999)
# pIC50: −log10 of the molar value.
# Key:
# [1] = molecular target: Sodium channel alpha subunits; brain (Types I, II, III) (Rattus norvegicus, UniProt P04775+P04774+P08104); experiment: Inhibition of veratridine-induced depolarization in rat cerebrocortical synaptosomes using the voltage sensitive fluorescent dye Rhodamine 6G; format: functional, subcellular
# D(2) dopamine receptor = D(2) dopamine receptor (Rattus norvegicus, UniProt P61169); experiment: Inhibition of [3H]raclopride binding to Dopamine receptor D2 of rat striatum membranes; format: cell membranes, Membrane
# Sequence of D(2) dopamine receptor (P61169 whole entry): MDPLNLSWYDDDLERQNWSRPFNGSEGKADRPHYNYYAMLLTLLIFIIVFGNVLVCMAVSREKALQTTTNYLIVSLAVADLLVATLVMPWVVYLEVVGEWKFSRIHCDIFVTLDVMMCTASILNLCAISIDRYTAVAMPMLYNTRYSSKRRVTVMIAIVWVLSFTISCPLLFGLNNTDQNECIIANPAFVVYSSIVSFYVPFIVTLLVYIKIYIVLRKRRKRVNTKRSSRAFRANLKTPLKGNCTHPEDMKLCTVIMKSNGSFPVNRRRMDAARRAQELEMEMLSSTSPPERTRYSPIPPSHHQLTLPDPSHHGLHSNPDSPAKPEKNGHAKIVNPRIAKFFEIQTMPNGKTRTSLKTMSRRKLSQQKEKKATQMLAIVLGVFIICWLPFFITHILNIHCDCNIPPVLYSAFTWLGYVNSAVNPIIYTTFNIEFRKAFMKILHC
# Mus musculus = experiment: Compound was tested in vivo for anticonvulsant activity in DBA/2 mice by i.p. administration; format: functional; details: ip
# [2] = Effect on low-threshold (T-type) Calcium current in primary cultured rat cerebrocortical neurons; format: functional
Structure (SMILES),IC50 [1] [nM],pIC50 (D(2) dopamine receptor),ED50 (Mus musculus) [mg/kg],pIC50 [2]
Cl.OC(COc1ccccc1)CN1CCC(c2ccc(Cc3ccc(F)cc3)cc2)CC1 (centres undefined),360,< 5.00,7.5,6.10
Cl.O[C@H](COc1ccccc1)CN1CCC(c2ccc(Oc3ccccc3)cc2)CC1,130,5.36,2.5,5.70
Cl.Fc1ccc(Cc2ccc(C3CCN(C/C=C/c4ccccc4)CC3)cc2)cc1,190,,2.2,6.22
Cl.OC(COc1ccccc1)CN1CCC(c2ccc(Oc3ccccc3)cc2)CC1 (centres undefined),220,5.33,5,5.46
Fc1ccc(C(c2ccc(F)cc2)N2CCN(C/C=C/c3ccccc3)CC2)cc1 [FLUNARIZINE],,,6.4,5.66
Cl.O[C@@H](COc1ccccc1)CN1CCC(c2ccc(Oc3ccccc3)cc2)CC1,120,5.39,2.5,5.57
C(=C\c1ccccc1)/CN1CCC(c2ccc(Oc3ccccc3)cc2)CC1.Cl,320,,4.2,6.10
